Results on 14 compounds are retold here after patent publication US11744899B2, “Pharmaceutical composition containing a hyaluronic acid derivative” (SEIKAGAKU CORPORATION, priority 2018, dated 2023).

Series [1] in a line: Storage test (1-1) using 50 mM phosphate buffer solution (pH 6.5). The format is physicochemical. To be noted: additional component 5 wt %; 1.0 wt % hyaluronic acid derivative, 50 mM phosphate buffer pH 6.5, 1 week at 60° C., HPLC; control solution = 1. As to the method:
(§1) 1.5 g of the hyaluronic acid derivative of the above Synthesis Example and 98.5 g of each of the various buffer solutions prepared above were mixed and stirred for 2 hours in a water bath at 70° C., whereby a 1.5 wt % hyaluronic acid derivative solution was prepared.
(§2) Additional component aqueous solutions to be added to the hyaluronic acid derivative solution were prepared using various additional components and WFI so that the concentration of each component is three times as high as the final concentration (wt %).
(§3) 2.0 g of the 1.5 wt % hyaluronic acid derivative solution prepared above and 1.0 g of the additional component aqueous solution were mixed, whereby a test sample (final concentration of hyaluronic acid derivative: 1.0 wt %) was prepared.
(§4) The test samples prepared above containing each of the various buffer solutions (50 mM phosphate buffer solution, 10 mM citrate buffer solution, 10 mM acetate buffer solution, or 30 mM acetate buffer solution) were subjected to a storage test.
(§5) Each of the test samples was stored for 1 week in a thermostat chamber at 60° C., and thereafter, the accumulation amount of each of diclofenac and diclofenac lactam was measured by HPLC.
(§6) The amount of diclofenac and the amount of diclofenac lactam were calculated as relative values when each of the amount of diclofenac and the amount of diclofenac lactam present in the control solution (1 wt % hyaluronic acid derivative solution) after being stored for 1 week at 60° C. was assumed to be 1.
(§7) Each of the prepared various test samples was filled in a screw vial (AS ONE Corporation, Cat No. 3-1599-01) and left to stand at 60° C. for 1 week. The amount of diclofenac and the amount of diclofenac lactam present in the solution after being left to stand were quantitatively analyzed by HPLC.
(§8) The HPLC conditions are as follows.
(§9) The elution time of each of diclofenac and diclofenac lactam was determined by performing measurement in advance using a standard substance.

Series [2] in a line: Storage test (1-2) using 10 mM citrate buffer solution (pH 5.1). The format is physicochemical. To be noted: after storage, 1.0 wt % hyaluronic acid derivative, 10 mM citrate buffer pH 5.1, 1 week at 60° C. As to the method:
A citric acid aqueous solution having a citric acid concentration of 15 mM and a trisodium citrate aqueous solution having a citrate concentration of 15 mM were mixed at a ratio (volume ratio) of 27:37, whereby a citrate buffer solution was prepared. The pH of the citrate buffer solution after preparation was 5.1.
as §1, §2, §3, §4, §5, §6, §7, §8, §9
As the additional component, creatinine (1 wt %), sodium deoxycholate (5 wt %), 1,2,3-butanetriol (5 wt %), PEG 400 (6.3 wt % or 16.5 wt %), PEG 600 (10 wt %), PEG 4000 (10 wt %), PEG 6000 (10 wt %), SDS (5 wt %), Triton X-100 (5 wt %), ethanol (26 wt %), octyl glucoside (5 wt %), glucuronolactone (0.1 wt %), chlorogenic acid (0.1 wt %), propylene glycol (10 wt %), polysorbate 20 (5 wt %), or polyvinylpyrrolidone (5 wt %) was used.
Similarly, as the additional component, additional components of a two-component system of PEG 3350 (10.6 wt %) and polysorbate 80 (3 wt %), or PEG 3350 (6.0 wt %) and hydroxypropyl-β-cyclodextrin (10 wt %), or additional components of a three-component system of PEG 3350 (5.5 wt %), polysorbate 80 (1 wt %) and hydroxypropyl-β-cyclodextrin (10 wt %) were used.

In a further series the target is T1, Cox-2 (Homo sapiens, UniProt P35354).
T1 sequence (P35354 18-604): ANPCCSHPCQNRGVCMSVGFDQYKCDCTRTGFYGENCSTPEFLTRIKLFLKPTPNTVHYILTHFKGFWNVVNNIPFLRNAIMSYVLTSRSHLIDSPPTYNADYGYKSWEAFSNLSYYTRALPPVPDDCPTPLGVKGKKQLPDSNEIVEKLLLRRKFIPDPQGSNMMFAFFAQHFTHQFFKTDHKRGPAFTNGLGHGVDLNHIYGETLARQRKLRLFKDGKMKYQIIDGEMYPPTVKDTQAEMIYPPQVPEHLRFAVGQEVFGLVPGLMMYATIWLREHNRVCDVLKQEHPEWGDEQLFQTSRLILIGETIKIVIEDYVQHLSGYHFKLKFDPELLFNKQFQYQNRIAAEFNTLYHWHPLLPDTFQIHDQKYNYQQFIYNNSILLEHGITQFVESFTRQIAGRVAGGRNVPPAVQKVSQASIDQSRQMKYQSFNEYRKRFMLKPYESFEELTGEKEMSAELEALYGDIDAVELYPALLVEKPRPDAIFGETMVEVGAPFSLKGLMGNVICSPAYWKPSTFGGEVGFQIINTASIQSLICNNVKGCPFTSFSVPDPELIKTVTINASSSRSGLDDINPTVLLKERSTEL
Nature of the series: Cox-2 inhibitory activity. Format: biochemical. To be noted: ratio to diclofenac.

The nature of series [3]: Evaluation of filterability of aqueous composition (Vmax). To be noted: 1.0 wt % hyaluronic acid derivative, acetate buffer pH 5.1, 0.22 μm PVDF membrane, 0.6 MPa, 70° C. The format is physicochemical. As to the method:
The calculation of the maximum treatment amount (Vmax) is more specifically performed as follows. That is, the aqueous composition at a liquid temperature of 70° C. is filtered under a pressure of 0.6 MPa using a polyvinylidene fluoride filtration membrane with a pore size of 0.22 μm. At that time, the total filtration amount per effective filtration area (V) of the filtration membrane is measured every 30 seconds until the flow rate (Q) becomes 1/10 or less of the flow rate at the start of filtration. By plotting the measurement results with the filtration time (t) along the horizontal axis and t/V along the vertical axis, the following formula A is calculated within a range of the measurement point where the transition of t/V is stable. The maximum treatment amount (Vmax) is determined from the reciprocal of the slope a of the calculation formula A (that is, the following calculation formula B). Note that the flow rate (Q) is the filtration amount per unit time (that is, Q=dV/dt).
The hyaluronic acid derivative prepared above and the 15 mM acetate buffer solution (pH 5.1) prepared above were mixed and stirred, and then, defoamed by being left to stand, whereby a 1.5 wt % hyaluronic acid derivative solution was prepared.
150.0 g of the 1.5 wt % hyaluronic acid derivative solution prepared above and 75.0 g of an additional component aqueous solution were mixed, whereby a test sample (final concentration of hyaluronic acid derivative: 1.0 wt %) was prepared.
In addition, a control solution in which 75.0 g of WFI was mixed in place of the additional component aqueous solution was also prepared.
To a stainless steel pressure filter holder in which a polyvinylidene fluoride (PVDF) membrane (47 mm in diameter, effective filtration area: 13.8 cm^2, manufactured by Merck & Co.) with a pore size of 0.22 μm was set, 200 mL of the test sample prepared above was added and pressure was applied at 0.6 MPa at 70° C. The amount of liquid passing through the filter was weighed every 30 seconds, and the maximum treatment amount (Vmax) was calculated from the relationship between the elapsed time and the total filtration amount.

The nature of series [4]: Storage test (1-4) using 10 mM acetate buffer solution (pH 5.1). The format is physicochemical. To be noted: additional component 5 wt %; 1.0 wt % hyaluronic acid derivative, 10 mM acetate buffer pH 5.1, 1 week at 60° C., HPLC; control solution = 1. As to the method:
An acetic acid aqueous solution having an acetic acid concentration of 15 mM and a sodium acetate aqueous solution having an acetate concentration of 15 mM were mixed at a ratio (volume ratio) of 1:3, whereby an acetate buffer solution was prepared. The pH of the acetate buffer solution after preparation was 5.1. In addition, an acetate buffer solution having an acetic acid concentration of 45 mM and a pH of 5.1 was prepared in a similar manner. […]
as §5, §6
Each of the prepared various test samples was filled in a screw vial (AS ONE Corporation, Cat No. 3-1599-01) and left to stand at 60° C. for 1 week. The amount of diclofenac and the amount of diclofenac lactam present in the solution after being left to stand were quantitatively analyzed by HPLC. […]
as §9

Series [5] in a line: Storage test (1-3) using 30 mM acetate buffer solution (pH 5.1). Format: physicochemical. To be noted: 1.0 wt % hyaluronic acid derivative, 30 mM acetate buffer pH 5.1, 1 week at 60° C., HPLC, control solution = 1. As to the method:
An acetic acid aqueous solution having an acetic acid concentration of 15 mM and a sodium acetate aqueous solution having an acetate concentration of 15 mM were mixed at a ratio (volume ratio) of 1:3, whereby an acetate buffer solution was prepared. The pH of the acetate buffer solution after preparation was 5.1. In addition, an acetate buffer solution having an acetic acid concentration of 45 mM and a pH of 5.1 was prepared in a similar manner.
as §1, §2, §3, §4, §5, §6, §7, §8, §9
As the additional component, propyl gallate (1.5 wt %), any one of lactic acid anhydrous (1.5 wt %), hydroxypropyl cellulose (1.5 wt %), starch (1.5 wt %), dextran (5 wt %), sucrose (5 wt %), sodium saccharinate dihydrate (5 wt %), glycine (5 wt %), sodium aspartate (1.5 wt %), L-leucine (1.5 wt %), L-phenylalanine (5 wt %), L-serine (5 wt %), D-mannitol (1.5 wt %), D-sorbitol (5 wt %), hydroxypropyl-β-cyclodextrin (3 wt %, 5 wt %, 10 wt %, or 15 wt %), and ethanol (5 wt %, 10 wt %, 20 wt %, or 26.3 wt %) was used.

Consider `OC[C@H]1OC=C[C@@H](O)[C@@H]1O` [D-glucal], for which the “Dic amount: the relative value of the amount of diclofenac” value (from here on “Dic amount: the relative value”) in series [1] turned out to be 1.15.
Take `CCCCCCCCCCCCOS(=O)(=O)[O-].[Na+]` [SDS, sodium dodecyl sulfate]: the Solution properties entry in series [2] (additional component 5 wt %) was “colorless and clear”.
For `COc1ccc(O)c(C(C)(C)C)c1` [butylhydroxyanisole], the “Dic amount: the relative value” value in series [1] came out at 0.99.
Turning to `O=C(/C=C/c1ccc(O)c(O)c1)O[C@@H]1C[C@](O)(C(=O)O)C[C@@H](O)[C@H]1O` [chlorogenic acid], the Solution properties result in series [2] (additional component 0.1 wt %) was “light yellow and clear”.
`O=C1Cc2ccccc2N1c1c(Cl)cccc1Cl` [diclofenac lactam]: the “Cox-2 inhibitory activity relative to that of diclofenac” value on Cox-2 is given as “about 1/100”.
On to `CCO` [ethanol], for which the Solution properties result in series [2] (additional component 26 wt %) was “colorless and clear”. For the same compound, the Maximum treatment amount in series [3] (additional component 5 wt %) is 10.3 g/cm^2; in series [3] (additional component 10 wt %) it was 8.2 g/cm^2.
For the compound `O=C[C@H](O)[C@H]1OC(=O)[C@@H](O)[C@H]1O` [glucuronolactone], the Solution properties result in series [2] (additional component 0.1 wt %) was “slightly yellow and clear”.
Turning to `OCC(O)CO` [glycerin], in series [1], the “Dic amount: the relative value” value amounted to 1.02.
Turning to `CCCCCCCCO[C@@H]1O[C@H](CO)[C@@H](O)[C@H](O)[C@H]1O` [octyl glucoside], the Solution properties result in series [2] (additional component 5 wt %) was “colorless and clear”.
Consider `CC(O)CO` (centres unmarked) [propylene glycol], for which the Solution properties entry in series [2] (additional component 10 wt %) was “colorless and slightly turbid”.
Regarding hydroxyethyl-β-cyclodextrin [HE-β-CD], in series [4], the “Dic amount: the relative value” value worked out at 0.63 and the “Lac amount: the relative value of the amount of diclofenac lactam” value was 0.34.
As for hydroxypropyl-β-cyclodextrin [HP-β-CD], the “Dic amount: the relative value” value in series [5] (additional component 3 wt %) stood at 0.62; in series [5] (additional component 5 wt %), 0.54; in series [5] (additional component 10 wt %) it was 0.44; in series [5] (additional component 15 wt %), 0.36. The “Lac amount: the relative value of the amount of diclofenac lactam” value in series [5] (additional component 3 wt %) is listed as 0.45; in series [5] (additional component 5 wt %), 0.34; in series [5] (additional component 10 wt %) it was 0.23; in series [5] (additional component 15 wt %), 0.17. Moreover, the Maximum treatment amount is listed as 8.3 g/cm^2 in series [3] (additional component 5 wt %) and 10.4 g/cm^2 in series [3] (additional component 10 wt %).
Take octylphenol ethoxylate [Triton X-100]: in series [2] (additional component 5 wt %), the Solution properties result is “colorless and clear”.
Take polysorbate 20: the Solution properties entry in series [2] (additional component 5 wt %) is “colorless and clear”.
